Measurements as given in patent US20120128580A1, “PRESELECTION OF SUBJECTS FOR THERAPEUTIC TREATMENT WITH ELESCLOMOL BASED ON HYPOXIC STATUS” (SYNTA PHARMACEUTICALS CORP., priority 2010, published 2012).

Assays:
[1] = Half-life of elesclomol in humans; assay type: in vivo; conditions: administered alone or with other chemotherapeutic agents
Excerpt: Elesclomol has been tested or has been approved for testing in clinical trials for treatment of metastatic melanoma, prostate cancer, solid tumors, recurrent or persistent ovarian epithelial cancer, fallopian tube cancer, and primary peritoneal cancer. The half-life of elesclomol in humans has been determined to be about an hour when administered alone or with other chemotherapeutic agents (e.g., with paxitaxel or carboplatinin).

cancer = experiment: Treatment outcomes by level of hypoxia in historical samples; assay type: in vivo, human
Experimental: An analysis using samples collected from subjects during treatment is performed to determine the efficacy of elesclomol for the treatment of cancer based on the level of hypoxia of the tumor based on markers assessed prior to and/or during the treatment of the subjects. […] The samples are analyzed for the level of hypoxia based on the amount or activity of a marker present. […] Various portions of the tumor tissue can also be analyzed when sufficient material is available, e.g., adjacent to the necrotic core, in the center of the tumor, adjacent to or including tumor vasculature, adjacent to normal tissue, etc. One or more markers of hypoxia are measured in each of the subjects, e.g., at least one isoform or subunit of lactate dehydrogenase (LDH) or hypoxia inducible factor (HIF); at least one pro-angiogenic form of vascular endothelial growth factor (VEGF), phosphorylated VEGF receptor (pKDR) 1, 2, or 3, neurolipin 1 (NRP-1), pyruvate dehydrokinase (PDH-K), and ornithine decarboxylase (ODC). […]

solid tumors = experiment: Trial of elesclomol in subjects with solid tumors stratified by level of hypoxia; assay type: in vivo, human; conditions: elesclomol alone or in combination
Excerpt: Subjects diagnosed with solid tumors are recruited for a study to determine the efficacy of elesclomol in the treatment of solid tumors, preferably tumors from the same tissue origin, e.g., breast, prostate, lung, liver, brain, colorectal, etc. Inclusion criteria include the presence of a solid tumor. Exclusion criteria include the presence of an ischemia related disease or disorder including, e.g., ischemic heart or vascular disease, poor circulation, diabetes, macular degeneration, recent stroke, or other ischemic events or conditions; or surgery planned during the duration of the trial. […]
All subjects are treated with elesclomol, either alone or in combination with one or more additional chemotherapeutic agents. […] Subjects are monitored for response to the agent throughout the trial, at the end of the trial, and at regular intervals after the conclusion of the trial using routine methods including, but not limited to, e.g., imaging, hematology, and physical examination. […] Preferably, the subjects continue to be monitored for outcomes beyond the formal end of the trial. […]
An analysis of the samples collected from subjects prior to and optionally during treatment is performed to determine the efficacy of elesclomol for the treatment of cancer based on the level of hypoxia of the tumor based on markers assessed prior to and optionally during the treatment of the subjects. […]

In the case of `CN(NC(=O)CC(=O)NN(C)C(=S)c1ccccc1)C(=S)c1ccccc1` [Elesclomol, N-malonyl-bis(N′-methyl-N′-thiobenzoylhydrazide)], the half-life [1] is reported as “about an hour”, the “response of subjects with a low level of hypoxia compared to a high level of hypoxia” value (cancer) is reported as “better response” and the “response of subjects with a low level of hypoxia compared to a high level of hypoxia” value (solid tumors) is reported as “better response”.
